Results as given in ChEMBL document CHEMBL1208747, “Derivatives of tetrahydroisoquinoline: synthesis and initial evaluation of novel non-peptide antagonists of the alpha(IIb)beta(3)-integrin” (Bioorg Med Chem Lett, 2010).

Experiments:
[1] = molecular target: T1, Integrin alpha-IIb/beta-3 (Homo sapiens, UniProt P05106+P08514); assay: Antagonist activity at FITC-tagged […] integrin in human platelet rich plasma; assay type: functional, cell-free
[2] = molecular target: T1, Integrin alpha-IIb/beta-3; assay: Antagonist activity at FITC-tagged alphaIIbbeta3 integrin in human platelet assessed as inhibition of FITC-fibrinogen binding on washed platelets
[3] = Antagonist activity at FITC-tagged […] integrin in human platelet rich plasma

T1 sequence (P05106 27-788 limits assumed): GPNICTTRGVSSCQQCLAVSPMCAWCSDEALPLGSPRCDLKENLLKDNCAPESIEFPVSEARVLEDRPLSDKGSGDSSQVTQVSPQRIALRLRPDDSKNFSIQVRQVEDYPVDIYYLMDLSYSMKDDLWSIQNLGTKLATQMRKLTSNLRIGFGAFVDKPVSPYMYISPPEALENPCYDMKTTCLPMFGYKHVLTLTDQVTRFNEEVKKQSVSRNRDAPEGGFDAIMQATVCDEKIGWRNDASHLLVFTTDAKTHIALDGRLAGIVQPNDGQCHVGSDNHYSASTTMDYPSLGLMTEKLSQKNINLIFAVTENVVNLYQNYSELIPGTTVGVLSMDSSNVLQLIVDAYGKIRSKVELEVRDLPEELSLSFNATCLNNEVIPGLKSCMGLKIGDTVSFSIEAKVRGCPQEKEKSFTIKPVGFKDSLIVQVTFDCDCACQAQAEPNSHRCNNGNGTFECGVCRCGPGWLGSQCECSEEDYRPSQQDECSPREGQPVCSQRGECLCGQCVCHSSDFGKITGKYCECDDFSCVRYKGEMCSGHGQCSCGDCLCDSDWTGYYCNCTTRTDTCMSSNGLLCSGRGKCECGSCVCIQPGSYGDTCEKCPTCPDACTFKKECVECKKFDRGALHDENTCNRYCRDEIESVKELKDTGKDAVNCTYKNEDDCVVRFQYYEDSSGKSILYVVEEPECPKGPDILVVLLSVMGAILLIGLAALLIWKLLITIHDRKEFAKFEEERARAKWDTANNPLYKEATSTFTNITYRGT
T1 sequence (P08514 32-887 limits assumed): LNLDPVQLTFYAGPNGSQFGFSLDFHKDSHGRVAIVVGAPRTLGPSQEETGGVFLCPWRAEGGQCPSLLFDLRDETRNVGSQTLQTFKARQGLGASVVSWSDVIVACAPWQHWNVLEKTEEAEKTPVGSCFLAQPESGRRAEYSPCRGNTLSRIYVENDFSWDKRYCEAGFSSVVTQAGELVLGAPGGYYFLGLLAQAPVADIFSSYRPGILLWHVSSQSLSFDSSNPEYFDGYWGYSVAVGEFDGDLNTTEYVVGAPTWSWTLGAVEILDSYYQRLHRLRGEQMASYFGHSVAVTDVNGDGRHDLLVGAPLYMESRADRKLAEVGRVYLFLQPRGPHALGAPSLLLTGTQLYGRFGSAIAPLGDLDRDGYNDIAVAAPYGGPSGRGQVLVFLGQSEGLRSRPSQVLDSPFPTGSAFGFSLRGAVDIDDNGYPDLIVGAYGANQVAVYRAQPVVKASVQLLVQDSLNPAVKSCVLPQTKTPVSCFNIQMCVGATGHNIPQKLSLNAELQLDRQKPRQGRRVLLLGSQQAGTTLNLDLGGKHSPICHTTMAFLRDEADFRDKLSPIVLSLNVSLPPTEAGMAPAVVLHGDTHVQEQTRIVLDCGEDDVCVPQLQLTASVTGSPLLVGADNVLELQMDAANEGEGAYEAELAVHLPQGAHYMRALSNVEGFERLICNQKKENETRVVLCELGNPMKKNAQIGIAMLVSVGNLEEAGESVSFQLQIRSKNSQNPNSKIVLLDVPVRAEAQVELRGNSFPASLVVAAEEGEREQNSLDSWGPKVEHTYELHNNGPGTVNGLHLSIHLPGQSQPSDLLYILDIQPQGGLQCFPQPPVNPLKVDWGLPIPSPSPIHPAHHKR
T1 sequence (P08514 891-1039 limits assumed): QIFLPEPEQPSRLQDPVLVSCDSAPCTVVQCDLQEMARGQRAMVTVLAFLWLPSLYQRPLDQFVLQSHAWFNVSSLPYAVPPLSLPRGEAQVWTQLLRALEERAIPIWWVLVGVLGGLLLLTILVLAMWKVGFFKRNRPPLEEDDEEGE

| SMILES | IC50 [1] [nM] | IC50 [2] [nM] | IC50 [3] [nM] |
| --- | --- | --- | --- |
| O=C(O)CC(NC(=O)CCC(=O)Nc1ccc2c(c1)CNCC2)c1cccc2ccccc12 (centres undefined) | 5200 | – | – |
| O=C(O)CC(NC(=O)c1cccc(C(=O)Nc2ccc3c(c2)CNCC3)c1)c1ccccc1 (centres undefined) | 25 | 1 | – |
| COc1ccc(C(CC(=O)O)NC(=O)CCC(=O)Nc2ccc3c(c2)CNCC3)cc1 (centres undefined) | 310 | 3.5 | – |
| O=C(O)CCNC(=O)CCC(=O)Nc1ccc2c(c1)CNCC2 | 30 | 1.21 | – |
| COc1ccc(C(CC(=O)O)NC(=O)CCC(=O)Nc2ccc3c(c2)CNC3)cc1OC (centres undefined) | 890 | 9 | – |
| CCOc1ccc(C(CC(=O)O)NC(=O)CCC(=O)Nc2ccc3c(c2)CNCC3)cc1OC (centres undefined) | 510 | – | – |
| COc1ccc(C(CC(=O)O)NC(=O)c2cccc(C(=O)Nc3ccc4c(c3)CNCC4)c2)cc1OC (centres undefined) | 11.6 | 0.7 | – |
| COc1ccc(C(CC(=O)O)NC(=O)CCCC(=O)Nc2ccc3c(c2)CNCC3)cc1 (centres undefined) | 4200 | 18 | – |
| O=C(O)CC(NC(=O)CCC(=O)Nc1ccc2c(c1)CNCC2)c1cccc(F)c1 (centres undefined) | 10000 | 1100 | – |
| O=C(O)CC(NC(=O)CCCC(=O)Nc1ccc2c(c1)CNCC2)c1ccc2c(c1)OCO2 (centres undefined) | 53 | 0.78 | – |
| O=C(O)CC(NC(=O)CCC(=O)Nc1ccc2c(c1)CNCC2)c1ccccc1F (centres undefined) | 570 | 5 | – |
| O=C(O)CC(NC(=O)CCC(=O)Nc1ccc2c(c1)CNCC2)c1ccccc1 (centres undefined) | 13 | 1.01 | – |
| O=C(O)CC(NC(=O)CCC(=O)Nc1ccc2c(c1)CNC2)c1ccc2c(c1)OCO2 (centres undefined) | 31 | 0.22 | – |
| CC(C)Oc1ccc(C(CC(=O)O)NC(=O)CCC(=O)Nc2ccc3c(c2)CNCC3)cc1 (centres undefined) | 87 | – | – |
| COc1ccc(C(CC(=O)O)NC(=O)CCCC(=O)Nc2ccc3c(c2)CNCC3)cc1OC (centres undefined) | 127 | 5 | – |
| O=C(O)CC(NC(=O)CCC(=O)Nc1ccc2c(c1)CNCC2)c1ccc2c(c1)OCO2 (centres undefined) | 90 | 0.4 | – |
| O=C(O)CC(NC(=O)CCC(=O)Nc1ccc2c(c1)CNCC2)c1ccc(F)cc1 (centres undefined) | 8.9 | 1 | – |
| COc1ccc(C(CC(=O)O)NC(=O)CCC(=O)Nc2ccc3c(c2)CNCC3)cc1OC (centres undefined) | 64 | 0.63 | – |
| O=C(O)CC(NC(=O)CCC(=O)Nc1ccc2c(c1)CNCC2)c1ccc(Cl)cc1 (centres undefined) | 2000 | 65 | – |
| COc1ccc(C(CC(=O)O)NC(=O)c2cccc(C(=O)Nc3ccc4c(c3)CNCC4)c2)cc1 (centres undefined) | 17 | 0.8 | – |
| CC(C)Oc1ccc(C(CC(=O)O)NC(=O)CCC(=O)Nc2ccc3c(c2)CNC3)cc1 (centres undefined) | 105 | 6 | – |
| O=C(O)CC(NC(=O)CCC(=O)Nc1ccc2c(c1)CNC2)c1ccccc1 (centres undefined) | – | – | 860 |
| Cc1ccc(C(CC(=O)O)NC(=O)CCC(=O)Nc2ccc3c(c2)CNCC3)cc1 (centres undefined) | 96 | 0.9 | – |
| COc1ccc(C(CC(=O)O)NC(=O)CCC(=O)Nc2ccc3c(c2)CNC3)cc1 (centres undefined) | 160 | 2.6 | – |
